The values below come from patent US7332480B2, “Compositions for the regulation of cytokine activity” (Yeda Research and Development Co. Ltd., priority 1992, dated 2008).

The subject of one experiment is adjuvant arthritis. Nature of the experiment: Adjuvant arthritis (AA) in rats. Type of experiment: in vivo, Lewis rats.
For a further experiment, the system named is IDDM of NOD mice. Nature of the experiment: Insulin dependent diabetes mellitus (IDDM) of NOD mice. Type of experiment: in vivo. The settings on record: H-9392 30 ng, glucosamine 10,000 ng; all the control mice had died (FIG. 41A).
For experiment [1], the system named is experimental allergic asthma. Nature of the experiment: Experimental allergic bronchial asthma in rats. Type of experiment: in vivo, Brown Norway rats. The settings on record: 30 ng s.c. on day 30, challenge on day 35; saline animals Grade 3 or 4. The protocol: Experimental allergic bronchial asthma is an immediate type hypersensitivity reaction in rats which have been immunized and then rechallenged by inhalation of the priming antigen in a aerosolized solution. (Edelman, et al., Am. Rev. Resp. Dis. (1988) 137:1033-37). The etiology and pathophysiology of this experimental disease closely parallel the naturally occurring human counterpart. […] V.), on day zero. Subsequent challenges consisted of a 5 minute period of inhalation of OVA (1 mg/ml solution) aerosolized in a Devilbiss Nebulizer operated at an airflow of 6 L/min. Respiratory Distress (RD) responses were scored as Grade 0, no signs of distress; Grade 1, tachypnea; Grade 2, moderate labored breathing; Grade 3 severe labored breathing with mouth open; Grade 4, loss of consciousness and muscular tone. Sixteen days following primary immunization all animals were exposed to an initial aerosolized challenge to establish the positive control. The animals were coded so that the observer was ignorant of the subject animal's history. […] On day thirty, the animals were divided into 2 groups and given either saline (control Group A) or 30 ng of substance H-9392, s.c., (Group B) and challenged on day 35 as above.

The subject of experiment [2] is secretion of active TNF-α by activated human CD4+ T cells. The experiment is described as follows: Bioassay of TNF-α activity using human CD4+ T cells derived from PBLs (human PBL bioassay). Type of experiment: cell-based. The settings on record: Table XXIII; conc range of 1 μg/ml-0.01 pg/ml; inconsistent = same result not obtained for all three bioassays. An excerpt:
Non adherent cells were eluted and washed.
Nophar, Y. et al. J. Immunol. (1988) 140 (10):3456-3460.

Another experiment relates to skin graft rejection. The experiment is described as follows: Skin allograft rejection in mice. To be noted: 300 ng/mouse s.c. one day before grafting and weekly thereafter. Type of experiment: in vivo, BALB/c mice. How it is done:
The effect of H-9392 was also tested in skin graft rejection experiments in mice. In particular, skin grafts from C57BL/6 donor mice (H-2^b) were applied to recipient BALB/c mice (H-2^d) according to the method of Baharav, E. et al. J. Immunol. Methods (1986) 90:143-144. The number of days to rejection was measured by the sloughing of the graft. The number of days to rejection was determined for a control group (injected with saline only, 0.1 ml), and test groups that received 3 ng or 300 ng of H-9392 by subcutaneous injection one day before grafting and weekly thereafter. The results, which are graphically represented in FIGS. 40 and 40A, reveal that the 3 ng/mouse dose delayed the level of skin graft rejection at 50% by 5 days!

For experiment [3], the system named is mortality after irradiation. The experiment is described as follows: Radioprotective effects in gamma-irradiated mice. Type of experiment: in vivo, BALB/c mice. To be noted: 750 rads, three administrations. How it is done: Groups of female BALB/c mice, 8 weeks old, 5-10 mice per group, were injected subcutaneously with either saline (0.1 ml, control), H-9392 (30 ng/mouse), or glucosamine (10,000 ng/mouse) 1 day before irradiation, and weekly thereafter until termination of the experiment on day 30. All the mice were irradiated to a dose of 700 rads using a ^60Co gamma radiation source.
The mortality within the different groups of mice was then scored over a 30 day period. […] The group of mice which had been injected with glucosamine also fared better than the control group, showing a 20% mortality rate in the same period.
In a separate experiment, groups of BALB/c mice (5 mice to a group) were likewise exposed to 750 rads of gamma-rays, except that these groups of mice were treated with test substances (saline at 0.1 ml per mouse; H-9392 at 0.3, 3, 30 and 300 ng/mouse; and glucosamine at 1, 10 and 100 μg/mouse) on the day before irradiation, on the sixth day after irradiation, and once again on the thirteenth day after irradiation only. All treatment ceased after the third and last administration.

For `O=C(O)C1=C[C@H](O)[C@@H](OS(=O)(=O)O)[C@H](O[C@H]2[C@H](O)[C@@H](NS(=O)(=O)O)C(O)O[C@@H]2CO)O1` (stereo partly drawn) [H-9392, 2-O-Sulfate-4-deoxy-4-en-iduronic acid-(α-1,4)-2-deoxy-2-N-sulfateglucosamine], the “course of AA after treatment was ended” value with adjuvant arthritis (treatment from day 12, dexamethasone phosphate daily or weekly, disaccharide weekly) is reported as “continued to exhibit improved AA scores”. The “effect on severity of AA” value with adjuvant arthritis (weekly or daily, beginning at day 0 or at day 12 (FIGS. 38D, 38E)) is recorded as “positive suppression of the severity of AA in all cases”. In addition, the “severity of the AA score at 30 days post-induction” value with adjuvant arthritis (weekly s.c. from day 12, dexamethasone phosphate 100 μg or disaccharide 120 ng per rat (FIG. 38G)) is “almost complete suppression”. In addition, the “mice died by age 5 months” value with IDDM of NOD mice is given as “none”. Further, the “respiratory distress after secondary challenge” value in experiment [1] is recorded as “mere tachypnea”. The “Bioassay of TNF Activity” value in experiment [2] is given as “Inconsistent”. For the same compound, the “difference at 50% rejection relative to control” value in the experiment on skin graft rejection is on record as “failed to produce a significant difference”. For the same compound, the “mice died by the thirtieth day after irradiation” value in experiment [3] (30 ng/mouse, 5 mice to a group) was “one”. For the same compound, the “activity in suppressing mortality after irradiation” value in experiment [3] (300 ng H-9392, 1 μg glucosamine) was “moderate activity”.
